Assay results reported in patent publication US6040149A, “Assay for identifying agents which act on the ceramide-activated protein kinase, kinase suppressor of ras, and methods of using said agents” (priority 1997, dated 2000).
Like-named read-outs stand apart in the source and are kept apart here.

What was measured:
KSR [1] = molecular target: T1, KSR (Mus musculus, UniProt Q61097); assay: KSR activity toward Raf-1 peptides in vitro; type: biochemical, mouse (KSR immunoprecipitated from COS-7 cells); set-up: Raf-1 peptides as substrate; conditions: 30 nM
T1 sequence (Q61097 1-873): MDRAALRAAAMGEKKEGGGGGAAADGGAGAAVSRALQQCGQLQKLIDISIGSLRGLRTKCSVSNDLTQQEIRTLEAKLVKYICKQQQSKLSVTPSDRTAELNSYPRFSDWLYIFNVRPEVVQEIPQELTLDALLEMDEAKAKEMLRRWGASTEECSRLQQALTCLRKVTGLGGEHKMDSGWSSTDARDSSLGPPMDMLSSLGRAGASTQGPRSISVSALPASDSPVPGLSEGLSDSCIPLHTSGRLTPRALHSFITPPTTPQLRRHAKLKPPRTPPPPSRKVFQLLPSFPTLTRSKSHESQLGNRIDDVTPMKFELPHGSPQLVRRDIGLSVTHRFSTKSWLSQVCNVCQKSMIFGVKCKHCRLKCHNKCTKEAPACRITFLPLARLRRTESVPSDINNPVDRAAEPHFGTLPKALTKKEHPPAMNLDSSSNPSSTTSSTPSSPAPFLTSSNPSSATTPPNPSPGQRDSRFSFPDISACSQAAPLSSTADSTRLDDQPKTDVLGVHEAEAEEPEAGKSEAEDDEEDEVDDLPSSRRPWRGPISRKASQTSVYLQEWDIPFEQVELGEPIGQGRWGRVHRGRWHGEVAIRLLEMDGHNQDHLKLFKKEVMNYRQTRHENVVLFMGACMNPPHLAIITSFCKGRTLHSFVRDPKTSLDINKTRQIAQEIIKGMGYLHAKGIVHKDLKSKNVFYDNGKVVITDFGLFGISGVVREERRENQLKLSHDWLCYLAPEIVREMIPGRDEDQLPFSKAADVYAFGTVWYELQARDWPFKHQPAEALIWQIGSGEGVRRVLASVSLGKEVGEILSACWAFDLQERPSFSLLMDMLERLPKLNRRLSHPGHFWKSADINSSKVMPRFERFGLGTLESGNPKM
Description: The wild type peptide contains eight potential phosphorylation sites (shown in bold). Substitution of alanines and glycines for serines and threonines generated one peptide (TTLP-peptide) containing only two potential phosphorylation sites (Thr^268,269) and another peptide (AALP-peptide) with no potential phosphorylation sites.
FIG. 28A--Flag-tagged KSR was immunoprecipitated from 0.2 mg COS-7 lysate, and assayed with TTLP- or AALP-peptides in the presence of 30 nM ceramide (Avanti) or diluent (DMSO). Background counts per minute (cpm) derived from samples incubated with the AALP-peptide which contains no phosphorylation sites were subtracted from all points. Background cpm always represented less than 25% of the untreated total.
FIG. 28B--Flag-tagged KSR immunoprecipitated from 0.2 mg COS-7 lysate was assayed with TTLP- or AALP-peptides in the presence of ceramide or diluent for 45 min as described in FIG. 7A.
FIG. 28C--Flag-tagged KSR was immunoprecipitated from 0.15 mg COS-7 lysate and assayed with TTLP- or AALP-peptides for 20 min in the presence of 30 nM of the indicated lipid second messengers as described in FIG. 28A (AA: arachidonic acid; LPA: lyso phosphatidic acid; PMA: phorbol 12-myristate 13-acetate; DAG: 1,2-diacylglycerol).
KSR-bound beads were incubated with reaction buffer B plus 10 mM MnCl2, 5 μM ATP and [γ-^32 P]ATP at 22° C. for the period of time indicated in the presence of 0.3 mM synthetic Raf-peptide or substrate peptides specific for other Ser/Thr protein kinases. […] (SEQ ID NO.3). Substitution of glycines and alanines for serines and threonines generated one peptide (termed TTLP-peptide) containing only two potential phosphorylation sites at Thr^268,269 (in bold), […] (SEQ ID NO. 24), and another peptide (termed AALP-peptide; SEQ ID No.6) with no potential phosphorylation sites, […] (SEQ ID No.25). The amino acid sequences of substrate peptides specific for other protein kinases (Joseph et al., 1993) are: […] (SEQ ID NO.26) (PKA); […] (SEQ ID NO.27) (S6 kinase); […] (SEQ ID NO.28)(CK II); […] (SEQ ID NO.29) (CaM kinase II); and […] (SEQ ID NO.30) (PKC). […] Substrate peptides for PKA and PKC were from Sigma (St. Louis, Mo.). The reaction was stopped by addition of a stop solution containing 0.5 M ATP in 90% formic acid. The beads were removed by centrifugation at 5000×g for 2 min and the supernatant was loaded on P81 Whatman filter paper. The filter was air dried and washed in 4 mM Na2 H2 P2 O7, 1 mM acetic acid for one hour. The filter was baked at 90° C. for 10 min and quantified by Cerenkov counting using a Beckman LS 5000TD scintillation counter. In some experiments, samples were separated by C18 reverse-phase chromatography on HPLC (Mathias et al., 1991) to verify the results of the filter assay. Virtually identical results were obtained with both methods.

KSR [2] = molecular target: T1, KSR; assay: KSR autophosphorylation in vitro; type: biochemical, mouse (KSR immunoprecipitated from COS-7 cells); set-up: Raf-1 peptides as substrate
Description: Phosphorylated KSR was resolved and detected as in FIG. 2A.
KSR was immunoprecipitated as above from 0.8 mg NP-40 lysate protein with 40 μl agarose-conjugated anti-Flag antibody at 4° C. for 4 hrs or overnight. […] The reaction was stopped by addition of Laemmli sample buffer. Samples were resolved by 7.5% sodium dodecyl sulfate-polyacrylamide gel electrophoresis (SDS-PAGE) and autoradiographed.

[3] = test system: ceramide-activated protein kinase; conditions: generation of other lipid second messengers, refs [111, 112]; cited from earlier work
[4] = test system: ceramide-activated protein kinase; assay: EGFR peptide phosphorylation in a cell-free system (HL-60 nuclei-free supernate); type: biochemical, human (HL-60 cells); conditions: GTP and GTP-γ-S 0.25 to 200 μM; sphingomyelinase 1×10^-3 U ml^-1, 5 minutes; phospholipases 40- to 400-fold higher
Description: Effect of TNF-α on ceramide-activated protein kinase activity. HL-60 cells were incubated in serum-free medium and homogenized (as in FIG. 9). […] ATP (750 μM, 4000 dpm pmol^-1), and 75 μl of reaction buffer. […] Phosphorylated peptide was first run on a C18 Sep-Pak cartridge, then resolved by C18 reverse-phase HPLC (Waters, Milford, Mass.), with a linear gradient of acetonitrile. The peptide eluted at 30% acetonitrile, as determined by monitoring Cerenkov radiation in 1-ml fractions. Background activity was subtracted from each point. (A) Kinetics of TNF-α (30 nM)-stimulated EGFR peptide phosphorylation. Values (mean) represent data from four experiments. (B) Concentration dependence of EGFR peptide phosphorylation at 5 minutes of stimulation with TNF-α (0.01 to 30 nM). Values (mean) represent data derived from duplicate points in two experiments. The SEM of the values in (A) was 18% and the mean range of values in (B) was 3%.
Effect of phospholipases on ceramide-activated protein kinase activity. Nuclei-free supernates, prepared as in FIG. 9, were first incubated with TNF-α (3 nM) or added directly to reaction mixtures that contained various phospholipases; sphingomyelinase (SMase) (1×10^-3 U ml^-1, S. aureus), phospholipase A2 (PlA2) (3.8×10^-2 and 3.8×10^-1 U ml^-1, Vipera ruselli), phospholipase C (PLC) (3.8×10^-2 U ml^-1, Bacillus cereus) and phospholipase D (PLD) (3.8×10^-2 U ml^-1, Streptomyces chromocuscus). Peptide phosphorylation was measured as in FIG. 10. Control value represents peptide phosphorylation in the absence of phospholipases or TNF-α. Values (mean±SEM) represent data derived from duplicate samples in three experiments. *P<0.001 compared to control.
The effect of TNF-α on ceramide-activated protein kinase activity was assessed. […] For studies assessing the effect of TNFα in broken cell preparations, nuclei-free supernates were incubated under conditions sufficient for stimulation of neutral sphingomyelinase in a reaction mixture that also contained EGFR peptide and γ-^32 P-labeled ATP. Phosphorylated peptide was resolved by high-performance liquid chromatograph (HPLC) and quantified by Cerenkov counting. Kinase activity was calculated from the specific activity of [γ-^32 P] ATP and incorporation of ^32 P into EGFR peptide. Background activity was subtracted from each point. […] TNF-α stimulation of kinase activity was evident by 1 minute and demonstrable for at least 10 minutes. If the initial incubation with TNF-α at 4° C. was omitted and TNF was added directly to the reaction mixture at 22° C., the reaction was delayed. […] TNF-α enhanced kinase activity in a concentration-dependent manner at 5 minutes (FIG. 10B). […] This is similar to the ED50 of 200 pM for stimulation of ceramide-activated protein kinase by TNF-α in intact cells. TNF-α enhanced kinase activity in a total of 20 separate studies.
Control activity reflects several TNF-α-independent protein kinases that are known to phosphorylate EGFR peptide on Thr^669.

Raf-1 = assay: Kinase activity of immunoprecipitated Raf-1 toward MEK1 after HL-60 cell stimulation; type: cell-based, human (HL-60 cells)
Description: Recovery of MEK1 was monitored by western blot (Bottom Panel). Identical results were obtained with cells stimulated for 5 min with TNF.
Recovery of MEK1 was monitored by western blot (Bottom Panel).
These studies indicate that Raf-1 is a component of the sphingomyelin pathway mediating TNF action.
MEK1 autophosphorylation was for 45 min. An autoradiogram of MEK1 phosphorylation (top panel) and recovery of MEK1 protein by western blot (bottom panel) are shown. For western blot, proteins separated by SDS-PAGE were electrotransferred to an Immobilon PVDF membrane at 12 volts overnight at 4° C. Membranes were then blocked with 2% BSA in TBS [20 mM Tris, pH 7.6, 137 mM NaCl] for 1 hr and washed with TBST (TBS containing 0.2% Tween-20).

For 1,2-diacylglycerol, the “effect on activation of KSR towards Raf-peptide” value (KSR [1]) is given as “no effect”, the “effect on activation of KSR” value (KSR [2]) is given as “no effect” and the “effect on kinase activity” value [3] is given as “failed to enhance kinase activity”.

For `Nc1nc2c(ncn2[C@@H]2O[C@H](COP(=O)(O)OP(=O)(O)OP(=O)(O)O)[C@@H](O)[C@H]2O)c(=O)[nH]1` [GTP, Guanosine triphosphate], the “effect on kinase activity” value [4] was “did not affect kinase activity”.

In the case of `Nc1nc2c(ncn2[C@@H]2O[C@H](COP(=O)(O)OP(=O)(O)OP(O)(O)=S)[C@@H](O)[C@H]2O)c(=O)[nH]1` [GTP-γ-S, guanosine-5'-O-(3-thiotriphosphate)], the “effect on kinase activity” value [4] is reported as “did not affect kinase activity”.

For `CCCCC/C=C\C/C=C\C/C=C\C/C=C\CCCC(=O)O` [arachidonic acid], the “effect on activation of KSR towards Raf-peptide” value (KSR [1]) is listed as “no effect”, the “effect on activation of KSR” value (KSR [2]) is listed as “no effect” and the “effect on kinase activity” value [3] is listed as “failed to enhance kinase activity”.

With “Granulocyte-macrophage colony stimulating factor: induces monocytic differentiation of HL-60 cells” the “increase of Raf-1 activity” value (Raf-1; GM-CSF 500 pM) was 2.5 fold.

In the case of PDGF, the “increase of Raf-1 activation” value (Raf-1; PDGF 5 nM, after TPA induction of PDGF receptors) is reported as 4 fold.

With insulin: insulin the “increase of Raf-1 activity” value (Raf-1; insulin 100 nM) was 4 fold.

For lyso-phosphatidic acid, the “effect on activation of KSR towards Raf-peptide” value (KSR [1]) was “no effect” and the “effect on activation of KSR” value (KSR [2]) was “no effect”.

In the case of phosphatidic acid, the “effect on kinase activity” value [3] is listed as “failed to enhance kinase activity”.

With phosphatidylcholine the “effect on activation of KSR” value (KSR [2]) was “no effect”.

In the case of phosphatidylserine, the “effect on activation of KSR” value (KSR [2]) is reported as “no effect”.
